“And” between values parts separate entries of the source, which are not always exact repeats. Equal values may be shown once.
Experiments:
[1] = target: recombinant PsauGOBP2; assay: Competitive fluorescence binding assay: displacement of 1-NPN from recombinant PsauGOBP2; parameters: species or system Peridroma saucia; settings: means ± SE, n = 3; for Ki: Ki = [IC50]/(1 + [1-NPN]/K1-NPN), read-out: Ki (calculated dissociation constant); for IC50: PsauGOBP2 and 1-NPN, IC50 > 30 μM considered no binding affinity, read-out: IC50 (concentration of ligand halving the initial fluorescence value of 1-NPN)
Description: (§1) For the expression of recombinant PsauGOBP2, pET-30b containing the sequence encoding mature PsauGOBP2 was used to transform BL21 E. coli cells. Protein expression was induced by the addition of IPTG (final concentration 0.4 mM) when the OD600 value of cell culture reached about 0.8. Cells cultured for further 2–4 h at 37°C were harvested by centrifugation. PsauGOBP2 was present as inclusion bodies. 10 mL of 8 M urea and 1 mM DTT in Tris buffer (50 mM, pH 7.4) were then used to solubilise the inclusion body pellet (from 1 L of culture). The dissolved protein was dialyzed against 1 L of Tris buffer (50 mM, pH 7.4). The recombinant protein was purified on the anion exchange resins QFF, following standard protocols previously adopted for other moth OBPs ([Sun et al., 2012]; [Sun et al., 2021]).
Binding affinities of odorants to PsauGOBP2 were measured by competitive binding assays. A panel of 28 compounds (competitors) including the P. saucia female sex pheromone components Z11-16: Ac and Z9-14: Ac and 26 host plant volatiles were used in the assay. The CAS number, source, and purity of these compounds were listed in Supplementary Table S3. A solution of PsauGOBP2 and 1-NPN, both at the concentration of […], was titrated with 1 mM of each competitor (dissolved in methanol) at a final concentration of 10 µM (sex pheromones) or 20 µM (host plant volatiles). The dissociation constants (Ki) of competitors to PsauGOBP2 were calculated using the equation: Ki = [IC50]/(1 + [1-NPN]/K1-NPN), where [IC50] is the concentration of the competitor halving (50%) the initial fluorescence value (100%), [1-NPN] is the free concentration of 1-NPN, and K1-NPN is the dissociation constant of the protein-1-NPN complex.

[2] = target: PsauGOBP1; parameters: method as in Sun et al., 2021; settings: binding to PsauGOBP1; ref Sun et al., 2021; cited from earlier work
[3] = target: recombinant PsauGOBP2; assay: Fluorescence binding assay: titration of recombinant PsauGOBP2 with the fluorescent probe 1-NPN; parameters: species or system Peridroma saucia; settings: 2 mM protein in 50 mM Tris-HCl pH 7.4, titrated with 1-NPN to 20 µM; excitation 337 nm; means +SE, n = 3; single binding site; read-out: K1-NPN (dissociation constant of 1-NPN to PsauGOBP2)
Description: as §1
The fluorescence binding assays were conducted on a Hitachi F-2710 with a 1 cm light path quartz cuvette. To measure the affinity of the fluorescent probe 1-NPN (N-phenyl-1-naphthylamine) to PsauGOBP2, a […] solution of the protein in 50 mM Tris-HCl, pH 7.4, was titrated with aliquots of 1 mM 1-NPN in methanol to a final concentration of 20 µM. The probe was excited at 337 nm, and emission spectra were recorded between 380 and 460 nm. The dissociation constant of 1-NPN (K1-NPN) to PsauGOBP2 was obtained by processing the data with GraphPad Prism 6.0.

[4] = remaining 1-NPN fluorescence at Max Conc 20 (20 µM, host plant volatiles)
[5] = remaining 1-NPN fluorescence at Max Conc 10 (10 µM, sex pheromones)

| SMILES | Ki [1] | IC50 [1] [µM] | Fluorescence at max (%) [1, 4] [%] | Fluorescence at max (%) [1, 5] [%] | Ki [2] [µM] | Kd [3] [µM] |
| --- | --- | --- | --- | --- | --- | --- |
| O=Cc1ccccc1 [Benzaldehyde] | – | > 30 | 74 ± 3 | – | 9.4 | – |
| C=C1CC/C=C(\C)CC[C@@H]2[C@@H]1CC2(C)C [(E)-Caryophyllene, (E)-caryophyllene] | – | > 30 | 90 ± 3 | – | – | – |
| C=CC(=C)CC/C=C(\C)CCC=C(C)C [(E)-β-farnesene] | – | > 30 | 75 ± 7 | – | – | – |
| C=C(C)[C@H]1CC=C(C)CC1 [D-Limonene] | – | > 30 | 85 ± 5 | – | – | – |
| CC(C)=CCCC(C)=CC=O (mixture of isomers) [Citral] | – | > 30 | 76 ± 5 | – | 5.6 | – |
| C=C/C(C)=C/CC=C(C)C [β-Ocimene, β-ocimene] | – | > 30 | 90 ± 4 | – | – | – |
| CC(=O)OCCc1ccccc1 [Phenylethyl acetate] | 6.3 ± 0.3 µM | 10.5 ± 0.5 | 39 ± 3 | – | – | – |
| CCCC/C=C\CCCCCCCCCCOC(C)=O [Z11-16: Ac] | 4.2 µM and < 5 µM | 6.5 ± 1.2 | – | 41 ± 4 | – | – |
| CC/C=C\CC1C(=O)CCC1CC(=O)OC (centres unmarked) [Methyl jasmonate] | – | > 30 | 70 ± 7 | – | – | – |
| C=CC(=C)CCC=C(C)C [β-Myrcene, β-myrcene] | 8 ± 0.3 µM | 12 ± 0.5 | 45 ± 1.5 | – | – | – |
| c1ccc2[nH]ccc2c1 [Indole] | – | > 30 | 100 ± 8 | – | – | – |
| CC/C=C\CCOC(C)=O [(Z)-3-Hexenyl acetate, (Z)-3-hexenyl acetate] | – | > 30 | 86 ± 2 | – | 4 | – |
| C=C1CCC2CC1C2(C)C (stereo not drawn) [β-Pinene, β-pinene] | – | > 30 | 79 ± 9 | – | – | – |
| CCC/C=C/C=O [(E)-2-Hexenal, (E)-2-hexenal] | – | > 30 | 77 ± 3 | – | – | – |
| CC/C=C\C[C@H]1C(=O)CC[C@@H]1CC(=O)O [Jasmonic acid] | – | > 30 | 73 ± 5 | – | – | – |
| c1ccc(Nc2cccc3ccccc23)cc1 [1-NPN, N-phenyl-1-naphthylamine] | – | – | – | – | – | 3.2 ± 0.19 |
| CCC/C=C/CO [(E)-2-Hexen-1-ol, (E)-2-hexen-1-ol] | – | > 30 | 69 ± 7 | – | – | – |
| CCCCCCCCC=O [Nonanal] | – | > 30 | 85 ± 2 | – | 6.8 | – |

More lines, main results first:

| Ki [1] | IC50 [1] [µM] | Fluorescence at max (%) [1, 4] [%] | Fluorescence at max (%) [1, 5] [%] | SMILES | Ki [2] [µM] | Kd [3] [µM] |
| --- | --- | --- | --- | --- | --- | --- |
| 13 ± 0.4 µM | 19.5 ± 0.6 | 49 ± 3 | – | CCCCCCCCCCCCO [Dodecanol] | – | – |
| – | > 30 | 100 ± 3 | – | CC(C)=CCC/C(C)=C/CC/C(C)=C/CO [Farnesol] | 6.4 | – |
| – | > 30 | 73 ± 7 | – | CCCCCCCCCC=O [Decanal] | – | – |
| 4.9 µM and < 5 µM | 7.5 ± 0.9 | – | 45 ± 3 | CCCC/C=C\CCCCCCCCOC(C)=O [Z9-14: Ac] | – | – |
| – | > 30 | 72 ± 3 | – | CC/C=C\CCO [(Z)-3-Hexen-1-ol, (Z)-3-hexen-1-ol] | 8.5 | – |
| – | > 30 | 69 ± 3 | – | CCC/C=C/COC(C)=O [(E)-2-Hexenyl acetate, (E)-2-hexenyl acetate] | – | – |
| – | > 30 | 80 ± 2 | – | CCCCCCCO [Heptanol] | – | – |
| – | > 30 | 75 ± 3 | – | CC/C=C\CC1=C(C)CCC1=O [(Z)-jasmone] | – | – |
| – | > 30 | 75 ± 2 | – | CCCCCCCC=O [Octanal] | – | – |
| – | > 30 | 74 ± 6 | – | C=CC(C)(O)CCC=C(C)C (centres unmarked) [Linalool] | – | – |
| – | > 30 | 79 ± 2 | – | COC(=O)c1ccccc1O [Methyl salicylate] | – | – |
